According to ChEMBL document CHEMBL5465560, “Selectivity Literature for EUbOPEN Chemogenomic Library” (2024):

Key:
[1] = biological target: Tyrosine-protein kinase JAK1 (Homo sapiens, UniProt P23458); settings: at 10 µM
[2] = biological target: Tyrosine-protein kinase SYK (Homo sapiens, UniProt P43405); test: Selectivity interaction (KinomeScan (DiscoverX)) EUB0000092b SYK; settings: at 10 µM
[3] = biological target: Receptor-interacting serine/threonine-protein kinase 2 (Homo sapiens, UniProt O43353); test: Selectivity interaction (KinomeScan (DiscoverX)) EUB0000655a RIPK2; settings: at 10 µM
[4] = tested on: Hepatocyte growth factor receptor (Homo sapiens), P08581 [Y1235D]; test: (§1) Selectivity interaction (KinomeScan (DiscoverX)) EUB0000655a MET; settings: at 10 µM
[5] = biological target: Hepatocyte growth factor receptor (Homo sapiens, UniProt P08581); test: as §1; settings: at 10 µM
[6] = tested on: Hepatocyte growth factor receptor (Homo sapiens), P08581 [M1250T]; test: as §1; settings: at 10 µM
[7] = biological target: STE20-like serine/threonine-protein kinase (Homo sapiens, UniProt Q9H2G2); test: Selectivity interaction (Kinase panel (KiNativ target engagement assay in Jurkat cells)) EUB0001635a SLK; format: cell-based; settings: Selectivity number of off-targets 0.0, Selectivity number of targets 233.0, Source Knowledge https://www.sciencedirect.com/science/article/pii/S2451945619300674?via%3Dihub, at 1 µM
[8] = biological target: Serine/threonine-protein kinase pim-3 (Homo sapiens) (UniProt Q86V86); test: Selectivity interaction (Kinase panel (Z-LYTE Assay)) EUB0001632a PIM3; settings: at 10 µM
[9] = biological target: Cyclin-dependent kinase 18 (Homo sapiens) (UniProt Q07002); test: Selectivity interaction (ActivX KiNativ screen (kinase selectivity in THP-1 cell lysates)) EUB0000639a CDK18; format: subcellular; settings: lysate, at 0.2 µM
Cyclin-dependent kinase 18 (Homo sapiens), sequence (Q07002 whole entry): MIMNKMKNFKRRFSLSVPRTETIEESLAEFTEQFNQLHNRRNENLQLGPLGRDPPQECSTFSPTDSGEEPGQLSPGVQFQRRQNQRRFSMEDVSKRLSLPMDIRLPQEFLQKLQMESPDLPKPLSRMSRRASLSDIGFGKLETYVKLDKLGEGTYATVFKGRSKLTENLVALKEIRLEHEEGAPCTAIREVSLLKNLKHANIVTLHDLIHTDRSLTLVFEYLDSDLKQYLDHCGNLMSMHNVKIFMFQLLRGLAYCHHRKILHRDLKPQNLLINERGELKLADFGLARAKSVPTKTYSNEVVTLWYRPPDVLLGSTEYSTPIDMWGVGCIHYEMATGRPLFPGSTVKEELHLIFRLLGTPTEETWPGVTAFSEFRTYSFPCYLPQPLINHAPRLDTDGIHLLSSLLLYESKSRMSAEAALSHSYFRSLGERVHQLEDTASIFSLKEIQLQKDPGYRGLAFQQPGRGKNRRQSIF

[10] = biological target: Cyclin-dependent kinase 7 (Homo sapiens, UniProt P50613); test: Selectivity interaction (ActivX KiNativ screen (kinase selectivity in THP-1 cell lysates)) EUB0000639a CDK7; format: subcellular; settings: lysate, at 1 µM
Cyclin-dependent kinase 7, sequence (P50613 whole entry): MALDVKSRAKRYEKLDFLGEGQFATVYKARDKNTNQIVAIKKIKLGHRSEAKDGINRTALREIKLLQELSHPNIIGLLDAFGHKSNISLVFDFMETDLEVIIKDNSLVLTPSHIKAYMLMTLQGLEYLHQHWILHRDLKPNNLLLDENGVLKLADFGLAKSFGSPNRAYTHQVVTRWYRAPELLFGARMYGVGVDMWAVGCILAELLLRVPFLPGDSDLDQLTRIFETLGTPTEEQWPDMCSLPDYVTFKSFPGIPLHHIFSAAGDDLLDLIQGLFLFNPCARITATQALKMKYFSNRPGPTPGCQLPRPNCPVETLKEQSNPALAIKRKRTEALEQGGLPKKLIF

[11] = biological target: T1, Serine/threonine-protein kinase TAO3 (Homo sapiens) (UniProt Q9H2K8); test: Selectivity interaction (ActivX KiNativ screen (kinase selectivity in THP-1 cell lysates)) EUB0000639a TAOK3; format: subcellular; settings: lysate
T1 sequence (whole entry): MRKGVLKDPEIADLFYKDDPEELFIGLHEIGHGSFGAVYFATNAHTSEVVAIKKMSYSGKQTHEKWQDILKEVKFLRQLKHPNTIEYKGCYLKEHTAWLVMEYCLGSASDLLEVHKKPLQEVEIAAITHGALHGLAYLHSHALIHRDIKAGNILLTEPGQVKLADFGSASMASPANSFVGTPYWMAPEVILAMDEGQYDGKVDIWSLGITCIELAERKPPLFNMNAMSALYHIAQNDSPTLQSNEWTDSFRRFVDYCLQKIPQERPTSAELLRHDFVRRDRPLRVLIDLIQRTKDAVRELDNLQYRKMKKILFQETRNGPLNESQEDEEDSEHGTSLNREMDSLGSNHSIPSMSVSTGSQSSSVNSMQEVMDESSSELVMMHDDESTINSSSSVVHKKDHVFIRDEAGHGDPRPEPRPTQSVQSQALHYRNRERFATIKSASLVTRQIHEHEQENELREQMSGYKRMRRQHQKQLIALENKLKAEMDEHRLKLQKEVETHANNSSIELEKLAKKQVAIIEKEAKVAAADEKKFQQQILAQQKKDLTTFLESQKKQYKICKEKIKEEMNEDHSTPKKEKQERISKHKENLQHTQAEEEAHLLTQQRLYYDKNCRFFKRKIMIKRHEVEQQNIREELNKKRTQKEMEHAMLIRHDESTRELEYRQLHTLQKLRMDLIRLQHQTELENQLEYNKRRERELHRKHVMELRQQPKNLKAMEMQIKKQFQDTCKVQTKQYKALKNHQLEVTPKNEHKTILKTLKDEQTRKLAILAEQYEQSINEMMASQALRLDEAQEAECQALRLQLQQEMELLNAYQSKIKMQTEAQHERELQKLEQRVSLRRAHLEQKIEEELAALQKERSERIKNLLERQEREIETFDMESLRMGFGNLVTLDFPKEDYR

[12] = biological target: Calcium/calmodulin-dependent protein kinase kinase 2 (Homo sapiens) (UniProt Q96RR4); test: Selectivity interaction (KinomeScan (DiscoverX)) EUB0000595a CAMKK2; settings: at 10 µM
Calcium/calmodulin-dependent protein kinase kinase 2 (Homo sapiens), sequence (Q96RR4 2-588 limits assumed): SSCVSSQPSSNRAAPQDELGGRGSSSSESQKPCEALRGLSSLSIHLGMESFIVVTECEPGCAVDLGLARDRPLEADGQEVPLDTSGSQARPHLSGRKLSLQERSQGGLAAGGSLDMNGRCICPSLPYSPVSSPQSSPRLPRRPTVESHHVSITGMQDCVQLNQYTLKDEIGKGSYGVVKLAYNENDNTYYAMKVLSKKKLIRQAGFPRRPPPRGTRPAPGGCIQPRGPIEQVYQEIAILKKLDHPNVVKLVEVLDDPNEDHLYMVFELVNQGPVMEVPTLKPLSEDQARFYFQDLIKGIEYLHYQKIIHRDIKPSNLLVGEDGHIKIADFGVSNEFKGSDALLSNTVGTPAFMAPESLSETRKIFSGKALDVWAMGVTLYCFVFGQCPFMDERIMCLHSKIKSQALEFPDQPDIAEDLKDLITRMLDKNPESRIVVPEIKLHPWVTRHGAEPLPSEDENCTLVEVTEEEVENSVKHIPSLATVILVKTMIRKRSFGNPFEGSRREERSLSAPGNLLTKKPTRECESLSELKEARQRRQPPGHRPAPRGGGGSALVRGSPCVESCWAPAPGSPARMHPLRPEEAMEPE

[13] = biological target: Calcium/calmodulin-dependent protein kinase type II subunit alpha (Homo sapiens, UniProt Q9UQM7); test: Selectivity interaction (KinomeScan (DiscoverX)) EUB0000595a CAMK2A; settings: at 10 µM
Calcium/calmodulin-dependent protein kinase type II subunit alpha, sequence (Q9UQM7 whole entry): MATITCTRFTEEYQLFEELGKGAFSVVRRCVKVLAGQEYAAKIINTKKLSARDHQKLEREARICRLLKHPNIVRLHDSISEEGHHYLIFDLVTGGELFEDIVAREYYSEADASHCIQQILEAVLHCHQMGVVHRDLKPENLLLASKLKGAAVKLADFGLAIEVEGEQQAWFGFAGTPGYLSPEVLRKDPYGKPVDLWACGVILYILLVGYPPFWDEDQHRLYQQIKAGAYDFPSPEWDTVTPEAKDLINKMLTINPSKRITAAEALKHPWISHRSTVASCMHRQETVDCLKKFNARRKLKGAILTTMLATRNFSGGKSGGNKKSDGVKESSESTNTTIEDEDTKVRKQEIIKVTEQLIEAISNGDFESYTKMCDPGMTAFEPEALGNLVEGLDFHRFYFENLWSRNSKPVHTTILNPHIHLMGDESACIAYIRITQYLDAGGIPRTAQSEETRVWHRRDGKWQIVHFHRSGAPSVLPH

[14] = biological target: Serine/threonine-protein kinase 38-like (Homo sapiens) (UniProt Q9Y2H1); test: Selectivity interaction (KinomeScan (DiscoverX)) EUB0000045b STK38L
Serine/threonine-protein kinase 38-like (Homo sapiens), sequence (Q9Y2H1 2-464 limits assumed): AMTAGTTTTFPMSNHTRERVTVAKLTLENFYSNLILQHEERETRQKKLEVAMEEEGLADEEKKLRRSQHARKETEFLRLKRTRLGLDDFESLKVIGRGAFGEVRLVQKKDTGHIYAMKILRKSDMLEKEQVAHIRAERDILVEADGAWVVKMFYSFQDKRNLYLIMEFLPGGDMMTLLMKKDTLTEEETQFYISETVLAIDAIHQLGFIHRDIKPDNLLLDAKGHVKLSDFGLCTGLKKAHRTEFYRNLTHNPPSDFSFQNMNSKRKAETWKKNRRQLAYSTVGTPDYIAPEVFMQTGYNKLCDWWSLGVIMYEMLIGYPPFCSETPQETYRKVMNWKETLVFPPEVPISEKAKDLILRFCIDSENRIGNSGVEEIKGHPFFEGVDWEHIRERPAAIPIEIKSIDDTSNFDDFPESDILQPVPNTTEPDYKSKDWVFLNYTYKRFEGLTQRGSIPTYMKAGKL

[15] = biological target: Mitogen-activated protein kinase 6 (Homo sapiens) (UniProt Q16659); test: Selectivity interaction (Ambit KINOMEscan and KiNATiv profiling in Jurkat cells) EUB0000090b MAPK6; format: cell-based; settings: at 1 µM
Mitogen-activated protein kinase 6 (Homo sapiens), sequence (Q16659 whole entry): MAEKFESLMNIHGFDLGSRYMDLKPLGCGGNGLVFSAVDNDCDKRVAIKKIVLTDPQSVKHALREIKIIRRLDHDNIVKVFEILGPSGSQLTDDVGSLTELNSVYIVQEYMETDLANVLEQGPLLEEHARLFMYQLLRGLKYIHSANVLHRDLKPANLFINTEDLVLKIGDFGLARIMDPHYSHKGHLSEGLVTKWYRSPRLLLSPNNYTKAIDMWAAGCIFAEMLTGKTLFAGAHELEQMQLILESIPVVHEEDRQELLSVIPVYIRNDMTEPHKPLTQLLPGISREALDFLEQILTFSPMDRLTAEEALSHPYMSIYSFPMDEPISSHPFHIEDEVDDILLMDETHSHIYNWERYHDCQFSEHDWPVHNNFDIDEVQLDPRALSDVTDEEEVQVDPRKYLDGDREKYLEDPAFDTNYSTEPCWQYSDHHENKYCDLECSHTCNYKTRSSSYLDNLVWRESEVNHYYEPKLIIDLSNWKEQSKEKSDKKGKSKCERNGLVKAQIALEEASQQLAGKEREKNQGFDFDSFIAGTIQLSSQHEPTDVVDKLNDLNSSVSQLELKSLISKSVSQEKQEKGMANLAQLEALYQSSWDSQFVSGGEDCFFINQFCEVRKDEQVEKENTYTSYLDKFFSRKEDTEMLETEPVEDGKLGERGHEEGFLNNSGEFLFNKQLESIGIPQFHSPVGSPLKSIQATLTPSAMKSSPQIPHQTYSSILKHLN

[16] = biological target: T2, Serine/threonine-protein kinase RIO1 (Homo sapiens) (UniProt Q9BRS2); test: Selectivity interaction (Ambit KINOMEscan and KiNATiv profiling in Jurkat cells) EUB0000090b RIOK1; format: cell-based; settings: at 1 µM
T2 sequence (whole entry): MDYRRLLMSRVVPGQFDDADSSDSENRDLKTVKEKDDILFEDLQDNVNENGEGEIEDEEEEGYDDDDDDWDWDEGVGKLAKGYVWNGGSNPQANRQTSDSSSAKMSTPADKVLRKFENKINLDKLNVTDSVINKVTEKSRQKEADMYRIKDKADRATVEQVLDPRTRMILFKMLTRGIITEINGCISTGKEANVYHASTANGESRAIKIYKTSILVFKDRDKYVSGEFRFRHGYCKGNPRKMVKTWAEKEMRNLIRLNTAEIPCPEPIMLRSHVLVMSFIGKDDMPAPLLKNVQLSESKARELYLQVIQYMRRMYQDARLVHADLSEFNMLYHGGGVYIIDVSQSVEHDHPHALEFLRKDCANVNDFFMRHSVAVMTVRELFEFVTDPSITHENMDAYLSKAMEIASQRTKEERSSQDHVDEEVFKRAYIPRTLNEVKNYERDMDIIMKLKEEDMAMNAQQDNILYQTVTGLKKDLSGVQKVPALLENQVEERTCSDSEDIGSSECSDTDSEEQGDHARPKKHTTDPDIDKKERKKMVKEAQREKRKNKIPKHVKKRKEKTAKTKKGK

[17] = biological target: Serine/threonine-protein kinase SIK1 (Homo sapiens) (UniProt P57059); test: Selectivity interaction (KinomeScan (DiscoverX)) EUB0001619a SIK1; settings: at 1 µM

Tyrosine-protein kinase JAK1, sequence (P23458 whole entry): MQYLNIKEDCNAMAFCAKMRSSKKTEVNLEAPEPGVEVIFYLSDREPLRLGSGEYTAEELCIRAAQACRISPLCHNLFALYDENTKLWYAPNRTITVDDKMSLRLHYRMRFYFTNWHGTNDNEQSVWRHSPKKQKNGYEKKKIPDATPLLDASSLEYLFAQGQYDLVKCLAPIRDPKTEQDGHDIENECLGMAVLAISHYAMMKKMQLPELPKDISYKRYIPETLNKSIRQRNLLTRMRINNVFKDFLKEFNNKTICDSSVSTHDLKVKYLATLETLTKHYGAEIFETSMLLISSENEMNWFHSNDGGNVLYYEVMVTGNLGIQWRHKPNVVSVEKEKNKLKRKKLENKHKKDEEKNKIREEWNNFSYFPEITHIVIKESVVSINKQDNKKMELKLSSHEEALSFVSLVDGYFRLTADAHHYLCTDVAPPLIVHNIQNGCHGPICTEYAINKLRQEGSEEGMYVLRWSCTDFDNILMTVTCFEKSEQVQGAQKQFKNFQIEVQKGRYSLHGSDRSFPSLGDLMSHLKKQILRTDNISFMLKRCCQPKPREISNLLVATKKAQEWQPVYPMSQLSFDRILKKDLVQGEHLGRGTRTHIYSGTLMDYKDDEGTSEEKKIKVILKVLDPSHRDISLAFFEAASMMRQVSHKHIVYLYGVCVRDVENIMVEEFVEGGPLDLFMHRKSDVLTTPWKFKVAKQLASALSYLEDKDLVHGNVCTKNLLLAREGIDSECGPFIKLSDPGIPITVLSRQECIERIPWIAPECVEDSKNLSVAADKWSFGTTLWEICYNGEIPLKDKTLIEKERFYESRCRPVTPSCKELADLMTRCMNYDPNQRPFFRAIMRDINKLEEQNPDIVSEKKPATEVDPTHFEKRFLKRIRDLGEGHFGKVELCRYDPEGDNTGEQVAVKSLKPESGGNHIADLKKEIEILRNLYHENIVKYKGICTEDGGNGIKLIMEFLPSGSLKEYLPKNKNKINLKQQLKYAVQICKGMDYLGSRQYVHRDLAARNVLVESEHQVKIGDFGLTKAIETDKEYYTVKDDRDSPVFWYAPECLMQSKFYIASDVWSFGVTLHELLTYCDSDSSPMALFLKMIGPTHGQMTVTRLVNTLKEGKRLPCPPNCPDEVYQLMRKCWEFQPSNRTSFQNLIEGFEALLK

**Q.** Which % of control [1] does the source give for CCN(CC)CCCCNc1ncc2cc(-c3cc(OC)cc(OC)c3)c(NC(=O)NC(C)(C)C)nc2n1 here?
**A.** Its % of control is 100%.

**Q.** Which % of control [2] does the source give for CCC(=O)N1CCN(c2ccc(-n3c(=O)ccc4cnc5ccc(-c6cnc7ccccc7c6)cc5c43)cc2C(F)(F)F)CC1 here?
**A.** The % of control was 78%.

**Q.** What does the source list for CN(C)CCOc1ccc(-c2nc(-c3ccncc3)c(-c3ccc4c(c3)CC/C4=N\O)[nH]2)cc1?
**A.** % of control [3]: 14%; % of control [4]: 64%; % of control [5]: 50%; % of control [6]: 64%

**Q.** Which % of engagement [7] does the source give for C=CC(=O)Nc1ccc(C(=O)Nc2[nH]nc3c2CN(C(=O)N[C@H](CN(C)C)c2ccccc2)C3(C)C)cc1 here?
**A.** The % of engagement was 13%.

**Q.** Cn1cc(-n2cnc3c(NCc4nc5cc(Cl)c(Cl)cc5[nH]4)nc(N4CCOCC4)nc32)cn1 was tested. Which % of control [8] did it give?
**A.** The % of control was -7.71%.

**Q.** With CC[C@@H]1[C@H](F)C(=O)N[C@@H]1COc1nccc2cc(C(N)=O)c(OC)cc12 [ZIMLOVISERTIB] as the compound, how does the % of inhibition [9] read?
**A.** The % of inhibition was 0.4%.

**Q.** And the % of inhibition [10]?
**A.** Its % of inhibition is 10.8%.

**Q.** And the % of inhibition ([11]; at 0.01 µM)?
**A.** Its % of inhibition is 6.6%.

**Q.** What about the % of inhibition ([11]; at 0.04 µM) of the same compound?
**A.** Its % of inhibition is -1.6%.

**Q.** What about the % of inhibition ([11]; at 0.2 µM) of the same compound?
**A.** The % of inhibition was 6.9%.

**Q.** And the % of inhibition ([11]; at 1 µM)?
**A.** Its % of inhibition is 12.9%.

**Q.** And the % of inhibition ([11]; at 5 µM)?
**A.** The % of inhibition was 41.7%.

**Q.** Which % of control [12] does the source give for COCC(=O)NC/C=C/c1ccc2ncnc(Nc3ccc(Oc4ccc(C)nc4)c(C)c3)c2c1 [CP-724714] here?
**A.** Its % of control is 85%.

**Q.** What about the % of control [13] of the same compound?
**A.** The % of control was 93%.

**Q.** With C=CC(=O)Nc1cc(-n2c(=O)ccc3cnc4ccc(-c5ccc(NS(C)(=O)=O)cc5)cc4c32)ccc1C as the compound, how does the % of control ([14]; at 1 µM) read?
**A.** The % of control was 100%.

**Q.** What about the % of control ([14]; at 10 µM) of the same compound?
**A.** Its % of control is 95%.

**Q.** What does the source list for CN(C)C/C=C/C(=O)Nc1ccc(C(=O)N2CCCC(Nc3ncc(Cl)c(-c4c[nH]c5ccccc45)n3)C2)cc1 (configuration not stated)?
**A.** % of control [15]: 40%; % of control [16]: 100%

**Q.** For N#Cc1cccc(-c2c[nH]c3ncnc(N4CCOCC4)c23)c1, which % of control [17] is on record?
**A.** The % of control was 84%.
